“Also recorded” adds a separate entry of the source.
Assays:
Assay type in all cases: cell-based
[1] = test system: MCF-7 breast cancer cells; assay: Optical microscopy of treated cells, MCF-7; settings: MCF-7, 5 μM, 48 hours, compared to HPR
Description: Both colon cancer HCT116 cells and breast cancer MCF-7 cells were treated with 5 μM of the retinoid derivatives KCBG10 and KCBG41 for 48 hours, and photographed by optical microscope (×200). As a control compound, HPR was used at the same concentration. In FIG. 2, the control represents non-treated cells.

[2] = test system: RAR subfamilies (RARα, RARβ, RARγ); assay: CAT ELISA reporter assay of retinoid receptors (Experimental Example 4)
Description: As the reporter gene, chloramphenicol acetyltransferase (CAT) gene was used. […] The colon cancer cells were plated at 10^6 in 6-well. At next day, the mixture of DNA (2 μg) and SuperFect reagent was added to the cells. After overnight transfection, the media were exchanged with fresh media containing retinoid at various concentrations for 24 hours and washed with cold 1×PBS. The cells were collected, suspended in 100 μl of 0.25M Tris-HCl (pH 7.6) and lysed by 3 freezing-thawing cycles. After centrifugation (12,000×g, 10 min, 4° C.), 100 μl of the supernatant was recovered. 10 μl of the recovered supernatant was tested for activity of β-galactosidase according to standard prosedures (Sambrook et al., 1989) and 50 μl of the recovered supernatant were tested for activity of the reporter by the CAT ELISA (Boeringer Mannheim, Germany) method. The obtained data for activity of the reporter was normalized with respect to β-gal activity for comparison.

various cancer cells = assay: MTT proliferation assay, summary over various cancer cells; settings: Table 2
Description: The effects of test compounds on proliferation of various cancer cells was examined by 3-(4,5-dimethylthiazol-2-yl)-2,5-diphenyltetrazolium bromide (MTT, Sigma) assay in a dose dependent manner. In the MTT assay, colon, liver, cervix, ovary, and breast cancer cell lines were treated with test compounds at various concentrations. Living cancer cells reduce MTT to dark blue MTT formazan that would be measured by absorbance.
Colon cancer cells, HCT116, DLD-1 and HT29, cervix cancer cells, HeLa and CaSki, ovary cancer cells, SKOV-3, 2774 and OVCAR-3, liver cancer cells, SK-Hep-1, PLCPRF5 and HepG2, and breast cancer cells, ZR75-1 and MDA-MB 231 were seeded at an initial density of 3000 cells per well in 96-well plates. After attachment of cells to the walls of the wells, the medium containing fresh retinoid was treated with various concentrations (0.5 μM, 1 μM, 2.5 μM, 5 μM, 10 μM) for 48 hours. 50 μl of MTT solution (2 mg/ml in PBS) was added to cell culture media. The reaction micture was incubated at 37° C. in a 5% CO2 atmosphere for 4 hours. The supernatant was removed and 150 μl of DMSO was added. The optical density was measured spectrophotometrically at 550 nm. […] For other retinoid derivatives according to the present invention, absorbances were measured by this procedure and IC50 values, concentrations required for 50% growth inhibition, were determined.

retinoid receptor activity relative to ATRA and HPR ([2]; three RAR subfamilies, as the concentration increased)	SMILES	number of viable cancer cells (microscopy) [1]	retinoid receptor activity (CAT reporter) ([2]; concentration dependence)	anti-cancer activity in cells other than HepG (various cancer cells)
–	CCCC(=O)Oc1cc(O)ccc1NC(=O)/C=C(C)/C=C/C=C(C)/C=C/C1=C(C)CCCC1(C)C [KCBG10, 2.2-[(2E,4E,6E,8E)-3,7-Dimethyl-9-(2,6,6-trimethylcyclohex-1-enyl)-nona-2,4,6,8-tetraenoylamino]-5-hydroxyphenylbutanoate]	significant reductions in the number of viable cancer cells; also recorded: kills MCF-7 cells much more than other derivatives	did not have activity at a low concentration but showed an increase of activity as the concentration increased	–
–	CC1=C(/C=C/C(C)=C/C=C/C(C)=C/C(=O)O)C(C)(C)CCC1 [ATRA, All-trans-retinoic acid, reference compound]	–	–	very a low anti-cancer activity
about 50%	CCCC(=O)Nc1cc(NC(=O)/C=C(C)/C=C/C=C(C)/C=C/C2=C(C)CCCC2(C)C)ccc1O [KCBG41, (2E,4E,6E,8E)-[3,7-dimethyl-9-(2,6,6-trimethylcyclohex-1-enyl)-nona-2,4,6,8-tetraenoylamino]-(3-butyrylamino-4-hydroxy)phenylamide]	significant reductions in the number of viable cancer cells	–	–

Reference: patent publication US7166744B2, “Retinoid derivatives and methods for producing said compounds and anti-cancer pharmaceutical composition comprising said compounds” (Chebigen Co., Ltd., priority 2001, dated 2007)
